According to patent publication US8530465B2, “1, 2-disubstituted amido-anthraquinone derivatives, preparation method and application thereof” (National Defense Medical Center, priority 2010, dated 2013):

How the values were obtained:
[1] = MTT assay, PhTERT-SEAP (H1299); format: cell-based, human; details: human, H1299 cells carrying the PhTERT-SEAP reporter, PhTERT-SEAP (H1299); for viability at 1 μM: Conc. 1 μM, read-out: Relative MTT viability (%); for viability at 10 μM: Conc. 10 μM; for viability at 10 μM / viability at 100 μM: read-out: Relative MTT viability (%) (converted); for viability at 100 μM: Conc. 100 μM
In short: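 Cultured cells received MTT for 4 h at 37 °C, then lysis buffer overnight at 37 °C. Optical density was read at 550 nm.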

[2] = tested on: HL-60(TB); test: NCI drug screen, HL-60(TB); format: cell-based, human; details: HL-60(TB) (Leukemia); 1.00E−5 Molar
Experimental: (§1) In brief, cellular protein levels were determined after 48 hours of drug exposure by sulforhodamine B colorimetry. Through the use of a time 0 cell control, the cell growth can be determined for each cell line thus allowing calculations of the 50% growth inhibitory concentration (GI50), the total growth inhibition (TGI), and the 50% lethal concentration (LC50). Comparison to plates not exposed to drug permits determination of concentration and times of exposure conferring 50% net growth inhibition (GI50), TGI, and 50% cell kill (LC50).
(§2) The screening system in United State National Cancer Institute (NCI) is consisted of 60 kinds of different human cancer cells, which can be used to assay the growth-inhibiting ability or cell toxicity of a compound against various cancer and tumor at a certain concentration.

[3] = tested on: SR; test: NCI drug screen, SR; format: cell-based, human; details: SR (Leukemia); 1.00E−5 Molar
Experimental: as §1, §2

[4] = tested on: HOP-92; test: NCI drug screen, HOP-92; format: cell-based, human; details: HOP-92 (Non-Small Cell Lung Cancer); 1.00E−5 Molar
Experimental: as §1, §2

[5] = tested on: NCI-H322M; test: NCI drug screen, NCI-H322M; format: cell-based, human; details: NCI-H322M (Non-Small Cell Lung Cancer); 1.00E−5 Molar
Experimental: as §1, §2

[6] = tested on: NCI-H460; test: NCI drug screen, NCI-H460; format: cell-based, human; details: NCI-H460 (Non-Small Cell Lung Cancer); 1.00E−5 Molar
Experimental: as §1, §2

[7] = tested on: A549/ATCC; test: NCI drug screen, A549/ATCC; format: cell-based, human; details: A549/ATCC (Non-Small Cell Lung Cancer); 1.00E−5 Molar
Experimental: as §1, §2

[8] = tested on: COLO 205; test: NCI drug screen, COLO 205; format: cell-based, human; details: COLO 205 (Colon Cancer); 1.00E−5 Molar
Experimental: as §1, §2

[9] = tested on: HCC-2998; test: NCI drug screen, HCC-2998; format: cell-based, human; details: HCC-2998 (Colon Cancer); 1.00E−5 Molar
Experimental: as §1, §2

[10] = tested on: HCT-15; test: NCI drug screen, HCT-15; format: cell-based, human; details: HCT-15 (Colon Cancer); 1.00E−5 Molar
Experimental: as §1, §2

[11] = tested on: KM12; test: NCI drug screen, KM12; format: cell-based, human; details: KM12 (Colon Cancer); 1.00E−5 Molar
Experimental: as §1, §2

[12] = tested on: SF-268; test: NCI drug screen, SF-268; format: cell-based, human; details: SF-268 (CNS Cancer); 1.00E−5 Molar
Experimental: as §1, §2

[13] = tested on: MDA-MB-435; test: NCI drug screen, MDA-MB-435; format: cell-based, human; details: MDA-MB-435 (Melanoma); 1.00E−5 Molar
Experimental: as §1, §2

[14] = tested on: UACC-257; test: NCI drug screen, UACC-257; format: cell-based, human; details: UACC-257 (Melanoma); 1.00E−5 Molar
Experimental: as §1, §2

[15] = tested on: OVCAR-3; test: NCI drug screen, OVCAR-3; format: cell-based, human; details: OVCAR-3 (Ovarian Cancer); 1.00E−5 Molar
Experimental: as §1, §2

[16] = tested on: OVCAR-4; test: NCI drug screen, OVCAR-4; format: cell-based, human; details: OVCAR-4 (Ovarian Cancer); 1.00E−5 Molar
Experimental: as §1, §2

[17] = tested on: OVCAR-5; test: NCI drug screen, OVCAR-5; format: cell-based, human; details: OVCAR-5 (Ovarian Cancer); 1.00E−5 Molar
Experimental: as §1, §2

[18] = tested on: OVCAR-8; test: NCI drug screen, OVCAR-8; format: cell-based, human; details: OVCAR-8 (Ovarian Cancer); 1.00E−5 Molar
Experimental: as §1, §2

[19] = tested on: SK-OV-3; test: NCI drug screen, SK-OV-3; format: cell-based, human; details: SK-OV-3 (Ovarian Cancer); 1.00E−5 Molar
Experimental: as §1, §2

[20] = tested on: 786-0; test: NCI drug screen, 786-0; format: cell-based, human; details: 786-0 (Renal Cancer); 1.00E−5 Molar
Experimental: as §1, §2

[21] = NCI drug screen, A489; format: cell-based, human; details: A489 (Renal Cancer); 1.00E−5 Molar
Experimental: as §1, §2

[22] = tested on: SN12C; test: NCI drug screen, SN12C; format: cell-based, human; details: SN12C (Renal Cancer); 1.00E−5 Molar
Experimental: as §1, §2

[23] = tested on: UO-31; test: NCI drug screen, UO-31; format: cell-based, human; details: UO-31 (Renal Cancer); 1.00E−5 Molar
Experimental: as §1, §2

[24] = tested on: DU145; test: NCI drug screen, DU145; format: cell-based, human; details: DU145 (Prostate Cancer); 1.00E−5 Molar
Experimental: as §1, §2

[25] = tested on: PC-3; test: NCI drug screen, PC-3; format: cell-based, human; details: PC-3 (Prostate Cancer); 1.00E−5 Molar
Experimental: as §1, §2

[26] = tested on: MDA-MB-231/ATCC; test: NCI drug screen, MDA-MB-231/ATCC; format: cell-based, human; details: MDA-MB-231/ATCC (Breast Cancer); 1.00E−5 Molar
Experimental: as §1, §2

[27] = tested on: HS 578-T; test: NCI drug screen, HS 578-T; format: cell-based, human; details: HS 578-T (Breast Cancer); 1.00E−5 Molar
Experimental: as §1, §2

[28] = tested on: BT-549; test: NCI drug screen, BT-549; format: cell-based, human; details: BT-549 (Breast Cancer); 1.00E−5 Molar
Experimental: as §1, §2

[29] = tested on: 60 kinds of different human cancer cells; test: NCI in vitro 60-cell Drug Screen, whole panel; format: cell-based; details: for Growth Percent, Mean: mean over tested cell lines
Experimental: as §1
From the data analysis it follows that approximately 95% of the actives (potent anticancer drugs) from the 60 cell line screen can be identified. By these criteria, five compounds (each with its certification number, refer to FIG. 4) of the invention were reported that having anticancer activity.
as §2

Row | SMILES | viability at 1 μM [1] [%] | viability at 10 μM [1] [%] | viability at 100 μM [1] [%] | Growth Percent [2] [%] | Growth Percent [4] [%] | Growth Percent [5] [%] | Growth Percent [6] [%] | Growth Percent [7] [%] | Growth Percent [8] [%] | Growth Percent [9] [%] | Growth Percent [10] [%] | Growth Percent [11] [%] | Growth Percent [12] [%] | Growth Percent [13] [%] | Growth Percent [14] [%] | Growth Percent [15] [%] | Growth Percent [16] [%] | Growth Percent [17] [%] | Growth Percent [18] [%] | Growth Percent [19] [%] | further results
1 | Cc1ccc(C(=O)Nc2c(NC(=O)CN3CCN(C)CC3)ccc3c2C(=O)c2ccccc2C3=O)cc1 [CC-43, 1-(4-methylbenzamido)-2-[2-(4-methylpiperazino)acetylamino]-anthraquinone] | 78.8 ± 3.47 | 29.5 | 8.11 | −8.54 | 90.68 | 72.60 | 37.47 | 83.89 | 2.29 | 28.97 | 27.47 | 44.05 | 59.11 | 11.15 | −50.95 | −6.15 | 57.11 | 106.66 | 46.43 | 108.91 | Growth Percent [3]: −43.70%; Growth Percent [20]: 11.90%; Growth Percent [21]: 67.36%; Growth Percent [22]: 63.31%; Growth Percent [23]: 70.66%; Growth Percent [24]: 82.12%; Growth Percent [25]: 84.75%; Growth Percent [26]: 37.00%; Growth Percent [27]: 87.29%; Growth Percent [28]: 91.88%; GI50 ([29]; Homo sapiens, 60 cell, NCI screen, FIG. 6, cell line not stated, read-out: 50% net growth inhibition (GI50)): 0.13 µM; growth-inhibiting effect against cancer cells, by cancer type ([29]; NCI's screen, 1.00E−5 Molar): could inhibit the cancer cell growth of leukemia, melanoma, and ovarian cancer; Growth Percent, Mean ([29]; 1.00E−5 Molar): 46.71%
2 | Cc1ccc(C(=O)Nc2c(NC(=O)CN3CCCC3)ccc3c2C(=O)c2ccccc2C3=O)cc1 [CC-38, 1-(4-methylbenzamido)-2-[2-(tetrahydro-1H-1-pyrrolyl)acetylamino]-anthra quinone] | 88.2 ± 4.94 | 69 | 5.05 | 96.11 | 59.33 | 82.50 | 61.05 | 84.88 | 65.60 | 84.60 | 73.22 | 51.05 | 86.17 | 79.14 | 92.83 | 77.82 | 47.06 | 102.31 | 65.02 | 82.13 | Growth Percent [20]: 65.15%; Growth Percent [21]: 68.12%; Growth Percent [22]: 74.82%; Growth Percent [23]: 69.24%; Growth Percent [24]: 91.52%; Growth Percent [25]: 75.00%; Growth Percent [26]: 73.34%; Growth Percent [27]: 69.39%; Growth Percent [28]: 81.58%; Growth Percent, Mean ([29]; 1.00E−5 Molar): 74.53%
